Measurements from patent publication US8992674B2, “Ink, ink cartridge and ink jet recording method” (Canon Kabushiki Kaisha, priority 2012, dated 2015).

Test: Measurement of Δλmax (UV-Vis absorption spectra in 20.0% 1,2-hexanediol aqueous solution and in water)
Type: physicochemical
Conditions: for λmaxD: maximum absorption wavelength in 20.0% by mass aqueous solution of 1,2-hexanediol; for λmaxD / λmaxW: coloring material 0.002 to 0.005%; for λmaxW: maximum absorption wavelength in ion-exchange water; for Δλmax: λmaxD−λmaxW
Excerpt: Specifically, the ink according to the present invention contains a first coloring material and a second coloring material satisfying the following conditions. […] Further, the sum of the Δλmax1 and the Δλmax2 needs to be 35.0 or less. λmax refers to a maximum absorption wavelength in the visible region (380 to 750 nm) in a UV-Vis absorption spectrum of a coloring material, and can be measured using a spectrophotometer.
In a coloring material in which an associating state and a non-associating state are concurrently present, the absorption spectrum has a plurality of maximal-absorption wavelengths in some cases. Then, respective peak shapes (heights) at the maximal-absorption wavelengths representing the associating state and the non-associating state vary depending on a liquid medium to be used in some cases. The maximum absorption wavelength in the present invention means the following. That is, even in the case where a maximum absorption wavelength in an absorption spectrum in 20.0% by mass aqueous solution of 1,2-hexanediol shifts based on an absorption spectrum in water, a peak originated from a maximum absorption wavelength in water is taken as the maximum absorption wavelength. […] In the present invention, since it is important to consider the shift of a wavelength giving a highest absorbance, a maximum absorption wavelength in 20.0% by mass aqueous solution of 1,2-hexanediol is considered to be a maximal-absorption wavelength on a larger wavelength side, which is a peak originated from a maximum absorption wavelength in water.
For each coloring material, the difference Δλmax (=λmaxD−λmaxW) between a maximum absorption wavelength (λmaxD) in a 20.0% by mass aqueous solution of 1,2-hexanediol and a maximum absorption wavelength (λmaxW) in water in UV-Vis absorption spectra was measured. λmaxD and λmaxW were measured by diluting each coloring material by using a 20.0% by mass aqueous solution of 1,2-hexanediol or ion-exchange water so that the content of the coloring material became 0.002 to 0.005%. The measurement condition is shown below. Then, the value Δλmax=λmaxD−λmaxW was determined from the measurement. Here, the unit of λmax is “nm.”
Spectrophotometer: a self-recording spectrophotometer (trade name “U-3300,” made by Hitachi, Ltd.)
Measurement cell: 1-cm quartz cell
Sampling interval: 0.1 nm
Scanning speed: 30 nm/min

Row | Compound | λmaxD [nm] | λmaxW [nm] | Δλmax [nm]
1 | Cc1ccc(S(=O)(=O)Nc2cc(S(=O)(=O)[O-])cc3cc(S(=O)(=O)[O-])c(N=Nc4cc(Cl)ccc4Oc4ccccc4)c(O)c23)cc1.[Na+].[Na+] [C.I. Acid Red 249] | 520.0 | 524.0 | −4.0
2 | O=C(O)c1nn(-c2ccc(S(=O)(=O)O)cc2)c(O)c1N=Nc1ccc(S(=O)(=O)O)cc1 [C.I. Acid Yellow 23] | 430.5 | 427.0 | 3.5
3 | COc1cc(N=Nc2cccc(S(=O)(=O)O)c2)ccc1NC(=O)Nc1ccc(N=Nc2cccc(S(=O)(=O)O)c2)cc1OC [C.I. Direct Yellow 132] | 411.0 | 405.5 | 5.5
4 | Nc1cc2c(O)c(N=Nc3ccc(N=Nc4ccc(S(=O)(=O)[O-])cc4)c4ccc(S(=O)(=O)[O-])cc34)c(S(=O)(=O)[O-])cc2cc1S(=O)(=O)[O-].[Na+].[Na+].[Na+].[Na+] [C.I. Food Black 2] | 595.0 | 585.5 | 9.5
5 | Cc1c(C#N)c(Nc2ccc(S(=O)(=O)O)cc2)nc(Nc2ccc(S(=O)(=O)O)cc2)c1N=Nc1sc(N=Nc2ccccc2C#N)c(-c2ccc(Nc3nc(NCCS(=O)(=O)O)nc(Nc4cc(S(=O)(=O)O)ccc4S(=O)(=O)O)n3)cc2)c1C#N [black coloring material 1] | 630.5 | 605.5 | 25.0
6 | Cc1c(C#N)c(Nc2ccc(S(=O)(=O)O)cc2)nc(Nc2ccc(S(=O)(=O)O)cc2)c1N=Nc1nc(-c2ccc3ccccc3c2)c(N=Nc2cc(S(=O)(=O)O)c3cc(S(=O)(=O)O)cc(S(=O)(=O)O)c3c2)s1 [black coloring material 4] | 604.0 | 604.0 | 0.0
7 | COc1cc(N=Nc2cccc(S(=O)(=O)O)c2)ccc1Nc1nc(NCCS(=O)(=O)O)nc(Nc2ccc(N=Nc3cccc(S(=O)(=O)O)c3)cc2OCCCS(=O)(=O)O)n1 [yellow coloring material 4] | 382.0 | 391.5 | −9.5
8 | C.I. Direct Yellow 86 | 399.0 | 380.0 | 19.0

The next lines start with the values.

Row | λmaxD [nm] | λmaxW [nm] | Δλmax [nm] | Compound
9 | 559.5 | 555.0 | 4.5 | CCc1cc(C)c(S(=O)(=O)O)c(CC)c1Nc1nc(N(c2nc3ccc(S(=O)(=O)O)cc3s2)c2c(CC)cc(C)c(S(=O)(=O)O)c2CC)cc(C)c1N=Nc1c(C#N)c(C(C)(C)C)nn1-c1nc2ccc(S(=O)(=O)O)cc2s1 [magenta coloring material 1]
10 | 512.0 | 508.5 | 3.5 | Cn1c(=O)c(C(=O)c2cccc(S(=O)(=O)O)c2)c2c3c(c(Nc4cc(Nc5nc(NCCNc6nc(Nc7cc(Nc8ccc9c%10c8C(=O)c8ccccc8-c%10c(C(=O)c8cccc(S(=O)(=O)O)c8)c(=O)n9C)c(S(=O)(=O)O)cc7S(=O)(=O)O)nc(Oc7ccc(S(=O)(=O)O)cc7)n6)nc(Oc6ccc(S(=O)(=O)O)cc6)n5)c(S(=O)(=O)O)cc4S(=O)(=O)O)ccc31)C(=O)c1ccccc1-2 [magenta coloring material 2]
11 | 451.5 | 427.5 | 24.0 | CC(C)(C)c1nn(-c2cc(C(=O)O)cc(C(=O)O)c2)c(N)c1N=Nc1nnc(SCCSc2nnc(N=Nc3c(C(C)(C)C)nn(-c4cc(C(=O)O)cc(C(=O)O)c4)c3N)s2)s1 [yellow coloring material 1]
12 | 408.0 | 417.0 | −9.0 | Cc1cc(Nc2nc(NCCS(=O)(=O)O)nc(Nc3ccc(N=Nc4ccc(N=Nc5ccc(S(=O)(=O)O)cc5)cc4S(=O)(=O)O)c(C)c3)n2)ccc1N=Nc1ccc(N=Nc2ccc(S(=O)(=O)O)cc2)cc1S(=O)(=O)O [yellow coloring material 3]
